56 molecules from PubChem BioAssay AID743394 (Broad Institute, 2014) can be followed below.

SMILES strings stand for the structures. Calls of active or inactive are those of the source.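 How the source made its calls: active means 40% activation versus positive control reached by fitted dose-response curve at or below highest valid tested dose; inconclusive means poor fit quality, or flat fit with activation between 30% and 70%; inactive means the rest.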

The experiment in a line: Xi-linked GFP reactivating small molecules – imaging, 68-5-11 mouse fibroblasts, cherry-pick, dose response (AID 743394).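 Further: sensitizer 5-aza-dC present in the wells at 0.5 mM final.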 The conditions noted are these: 68-5-11 mouse fibroblast XiGFP reporter, % GFP-positive imaging, 3 d; at 19.5 µM (top of the series); cells co-treated with 5-aza-dC sensitizer; scaled: neutral wells 0, ellipticine wells 100.
As to `[N-]=[N+]=CC(=O)C(O)(c1ccccc1)C(Cl)c1ccccc1` (stereo unspecified), the activation was 0.034% (inactive).
Then `Cc1ccc(S(=O)(=O)N(C)C[C@H]2OCCCC[C@@H](C)Oc3ccc(NC(=O)Nc4c(C)noc4C)cc3C(=O)N([C@H](C)CO)C[C@@H]2C)cc1`, with -0.011% (inactive).
Then `C/C(=N\NC(=O)CC1N=C(Cc2ccccc2)NNC1=O)c1ccc(Br)cc1` (stereo unspecified), with 0.028% (inactive).
As to `CC[C@]12c3[nH]c4cc(CCC(=O)N(C)C)ccc4c3CCN1C(=O)[C@@H](CC(=O)NCCC1=CCCCC1)C[C@@H]2C(=O)N1CCN(C(=O)c2ccco2)CC1`, the activation is 0.011% (inactive).
`CC(O)CN(CC(C)O)c1ccc2c(c1)Cc1cc([N+](=O)[O-])ccc1-2` (stereo unspecified): the activation is 11.6% (inactive).
Then `COc1ccc(CN(C)C[C@H]2OCCCC[C@@H](C)Oc3ccc(NC(=O)Nc4ccc(F)cc4)cc3C(=O)N([C@@H](C)CO)C[C@H]2C)cc1`, with 3.19% (inactive); and `Oc1c(C(c2ccccc2Cl)N2CCCC2)ccc2cccnc12` (stereo unspecified), with -0.035% (inactive); and `COc1ccccc1-c1cc(C(=O)N2CCCc3ccccc32)no1`, with 0.179% (inactive).
Under `CN(C)CCCNC(=O)/C(=C\c1ccc(-c2ccc(Br)cc2)o1)NC(=O)c1ccccc1` stands -0.053% (inactive); under `CCN(CC)S(=O)(=O)c1ccc(Cl)c(NC(=O)COC(=O)c2c(C)noc2C)c1`, 0.03% (inactive); under `CC[N+]1=C(C)C(C)(C)c2cc(C)ccc21`, -0.032% (inactive).
Then `Cc1cc(=O)[nH]c(N/N=C/c2cc(C)n(-c3ccccc3)c2C)n1`, with -0.016% (inactive); and `Cc1cc(C(=O)NCc2cc(F)cc3c2OCOC3)nn1C`, with -0.037% (inactive); and `CC1=C(Cl)C2=NS(=O)(=O)CCN2C=C1Cl`, with 0.137% (inactive).
For the molecule `COc1ccccc1C(=O)Nc1nnc(S(=O)(=O)N2CCCCCC2)s1`, the activation was 0.014% (inactive).
Under `COc1ccc2c3c([nH]c2c1)[C@H](CO)N(C(=O)c1cccnc1)CC31CCN(Cc2ccccc2)CC1` stands 0.094% (inactive); under `CC1CC(C)CN(C(=O)C(C)N2CCN(S(=O)(=O)c3ccccc3F)CC2)C1` (stereo unspecified), 0.412% (inactive).
With `Cc1[nH]c2ccc(Br)cc2c(=O)c1CN1CCCCCC1`, the activation was -0.013% (inactive).
Under `CCNC(=O)C[C@@H]1CC[C@H]2[C@@H](COC[C@@H](O)CN2C(=O)C2CCCC2)O1` stands -0.016% (inactive).
Under `COc1ccc(-c2ccc(C3[C@@H]4CN(S(=O)(=O)c5ccccc5C)C[C@H]3N4)cc2)cc1` (stereo partly specified) stands 0% (inactive); under `CC(=O)c1c(COC(=O)c2ccccc2Cl)nc2ccccc2[n+]1[O-]`, 0.188% (inactive).
Then `Cc1ccsc1/C=N/n1c(-c2cc(-c3ccccc3)n[nH]2)n[nH]c1=S`, with 0.001% (inactive); and `COc1ccc(N=Nc2ccc(O)c(P(=O)(c3ccccc3)c3ccccc3)c2)cc1`, with 0.015% (inactive).
Take `S=C(SSC(=S)N1CCOCC1)N1CCOCC1`: the activation is -0.127% (inactive).
Then `O=C(O)/C=C/C(=O)Nc1ccc(-n2nccc2C(F)(F)F)cc1`, with 1.34% (inactive); and `CCOC(=O)c1nn(-c2ccc3ccccc3c2)cc1O`, with 0.359% (inactive).
Take `CC(=O)NC(c1ccc(Cl)cc1)c1c(O)ccc2ccc(O)cc12` (stereo unspecified): the activation is 0.013% (inactive).
Under `CCOc1cccc(/C=N/NC(=S)Nc2cc(S(=O)(=O)N3CCOCC3)ccc2N2CCOCC2)c1O` stands 6.09% (inactive); under `COc1ccc2c3c([nH]c2c1)[C@@H](CO)N(Cc1cc(F)ccc1F)CC31CCN(C(C)=O)CC1`, -0.023% (inactive); under `COc1ccc(NC(=O)C(=O)NCCC2CCCCN2S(=O)(=O)c2cccs2)cc1` (stereo unspecified), 6.11% (inactive).
As for `Brc1cccc(CNCC2CCCO2)c1` (stereo unspecified), the activation was 0.116% (inactive).
Under `Nc1c(C(=O)O)cnn1-c1ccc([N+](=O)[O-])cc1` stands 0.022% (inactive); under `O=C(CC1CC1)N1CC(=O)N2[C@@H](CO)[C@H](c3ccc(C#Cc4ccc(F)cc4)cc3)[C@@H]2C1`, -0.031% (inactive).
Then `COCCCn1c(C)cc(C(=O)COC(=O)CCc2nc3ccccc3c(=O)[nH]2)c1C`, with 0.39% (inactive); and `Cc1ccccc1C1c2[nH]c3ccccc3c2CCN1Cc1cccn1-c1ncccn1` (stereo unspecified), with 0.097% (inactive); and `CC(=O)Oc1ccc2c(=O)c(-c3ccccc3)coc2c1`, with 0.086% (inactive).
Turning to `CNC(=O)C[C@H]1C(=O)N(c2ccccc2)C[C@@H]1C`, the activation was 0.464% (inactive).
Then `COC(=O)Nc1ccc(S(=O)(=O)N2CCCC(C(=O)N3CCN(C)CC3)C2)cc1` (stereo unspecified), with 0.221% (inactive).
Under `CC(=O)Nc1ccc(NS(=O)(=O)c2ccc3c(c2)oc(=O)n3C)cc1` stands 5.23% (inactive).
Then `c1ccc(CCNc2nc(-c3ccccn3)nc3ccccc23)cc1`, with -0.035% (inactive); and `CN(C)C=NC(=O)c1cc(C(=O)c2ccc(Cl)cc2Cl)c[nH]1`, with -0.032% (inactive).
As to `CCC(C(=O)Nc1cc(OC)c(NC(=O)c2ccccc2)cc1OC)c1ccccc1` (stereo unspecified), the activation was -0.037% (inactive).
For `Cc1ccc(S(=O)(=O)c2ccc([N+](=O)[O-])cn2)cc1`, the activation was -0.05% (inactive).
As to `Oc1cc2c(c(Cl)c1O)CCNCC2c1ccccc1` (stereo unspecified), the activation is -0.008% (inactive).
Under `Cn1c(=N)n(CC(=O)c2ccccc2)c2ccccc21` stands 0.105% (inactive).
Under `C[C@@H]1CN([C@H](C)CO)C(=O)c2cc(NS(=O)(=O)c3ccccc3)ccc2O[C@@H](C)CCCCO[C@@H]1CN(C)Cc1ccc2c(c1)OCO2` stands 0% (inactive); under `C(CCCN1CCCCC1)CCN1CCCCC1`, 0.047% (inactive); under `C[C@H](CO)N1C[C@H](C)[C@H](CN(C)C(=O)Nc2ccc(F)cc2)Oc2ncc(C#Cc3cccc(F)c3)cc2C1=O`, -0.031% (inactive).
Under `CCOC(=O)c1cnc(-c2ccc(C(F)(F)F)cn2)[nH]c1=O` stands -0.017% (inactive); under `Cc1ccc(S(=O)(=O)Nc2ccc3c(c2)C(=O)N([C@@H](C)CO)C[C@@H](C)[C@@H](CN(C)Cc2ccc(C(=O)Nc4ccccc4N)cc2)O3)cc1`, 1.51% (inactive).
As for `CC(=O)Nc1sc(N/N=C/c2ccc(N(C)C)cc2)nc1-c1ccc(C)cc1`, the activation is 0.052% (inactive).
Then `O=C(c1ccc(Br)cc1)c1cc([N+](=O)[O-])ccc1N1CCOCC1`, with 4.21% (inactive); and `CCCOc1ccc(Oc2nc(-c3ccncc3)nc3ccccc23)cc1`, with 0.003% (inactive).
Under `COc1ccc2c3c(n(C)c2c1)[C@H](CO)N(C(=O)CN1CCOCC1)CC31CCN(C(=O)Nc2cccc(F)c2)CC1` stands -0.035% (inactive).
As to `Cc1c(/C=N\NC(=O)c2cc3ccccc3o2)c2ccccc2n1C`, the activation is -0.044% (inactive).
Then `O=C1Nc2ccccc2/C1=C/c1ccccc1Cl`, with -0.034% (inactive).
